Data set [1] deals with T1, GluN2B (Mus musculus, UniProt P35439+Q01097, Q01097:C456Y, species not given).
T1 construct: gene Grin2b; recombinant diheteromeric GluN1/GluN2B-C456Y receptor; with GluN1
In words: potentiation of recombinant NMDAR currents in Xenopus oocytes. The data set is classed as cell-based.

Data set [2] deals with T2, GluN2B (Mus musculus, UniProt P35439+Q01097).
T2 construct: gene Grin2b; recombinant diheteromeric GluN1/GluN2B receptor; with GluN1
The description is as above. The data set is classed as cell-based.

These results are taken from publication PMC7217483, “Early correction of synaptic long-term depression improves abnormal anxiety-like behavior in adult GluN2B-C456Y-mutant mice” (PLoS Biology, 2020).

Structures are written as SMILES.

T2 sequence (Q01097 27-1482, other chains not shown): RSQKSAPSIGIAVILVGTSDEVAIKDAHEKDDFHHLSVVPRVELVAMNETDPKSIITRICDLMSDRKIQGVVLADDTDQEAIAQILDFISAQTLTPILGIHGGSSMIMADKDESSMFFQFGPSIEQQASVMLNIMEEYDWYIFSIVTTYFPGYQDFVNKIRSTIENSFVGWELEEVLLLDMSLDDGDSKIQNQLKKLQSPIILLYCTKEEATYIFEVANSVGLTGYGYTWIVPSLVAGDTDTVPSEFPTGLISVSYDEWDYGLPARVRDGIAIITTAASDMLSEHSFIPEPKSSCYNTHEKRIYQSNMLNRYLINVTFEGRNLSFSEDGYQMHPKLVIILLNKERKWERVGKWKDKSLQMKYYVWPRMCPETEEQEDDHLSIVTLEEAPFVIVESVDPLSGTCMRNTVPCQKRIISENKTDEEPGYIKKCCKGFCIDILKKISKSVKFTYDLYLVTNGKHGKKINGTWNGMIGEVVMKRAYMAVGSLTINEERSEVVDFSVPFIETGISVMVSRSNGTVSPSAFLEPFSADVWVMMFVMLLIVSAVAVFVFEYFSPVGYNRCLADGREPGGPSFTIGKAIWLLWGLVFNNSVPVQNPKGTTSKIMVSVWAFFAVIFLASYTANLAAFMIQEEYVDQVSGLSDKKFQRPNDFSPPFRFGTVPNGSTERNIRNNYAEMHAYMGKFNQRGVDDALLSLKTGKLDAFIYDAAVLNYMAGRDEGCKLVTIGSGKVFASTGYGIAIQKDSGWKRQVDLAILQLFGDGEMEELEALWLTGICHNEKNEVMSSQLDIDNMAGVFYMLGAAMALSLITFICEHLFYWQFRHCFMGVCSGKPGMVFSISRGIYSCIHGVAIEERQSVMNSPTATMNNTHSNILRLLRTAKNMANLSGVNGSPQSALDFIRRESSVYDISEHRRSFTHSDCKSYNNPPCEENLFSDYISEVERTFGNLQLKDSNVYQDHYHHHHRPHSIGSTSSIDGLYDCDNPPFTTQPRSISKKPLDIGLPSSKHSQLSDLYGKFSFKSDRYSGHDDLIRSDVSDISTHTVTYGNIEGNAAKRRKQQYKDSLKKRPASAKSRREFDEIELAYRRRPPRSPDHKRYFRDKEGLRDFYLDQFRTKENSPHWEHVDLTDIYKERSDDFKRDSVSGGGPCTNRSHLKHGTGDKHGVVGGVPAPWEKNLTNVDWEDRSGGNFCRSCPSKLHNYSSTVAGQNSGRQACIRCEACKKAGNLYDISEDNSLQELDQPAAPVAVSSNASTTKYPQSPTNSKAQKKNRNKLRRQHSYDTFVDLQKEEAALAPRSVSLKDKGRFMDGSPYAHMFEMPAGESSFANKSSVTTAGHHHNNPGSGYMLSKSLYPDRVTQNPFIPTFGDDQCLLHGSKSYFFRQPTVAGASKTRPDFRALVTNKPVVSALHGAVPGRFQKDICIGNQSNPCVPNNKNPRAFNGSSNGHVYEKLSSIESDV
T1 sequence (Q01097 27-1482 C456Y, other chains not shown): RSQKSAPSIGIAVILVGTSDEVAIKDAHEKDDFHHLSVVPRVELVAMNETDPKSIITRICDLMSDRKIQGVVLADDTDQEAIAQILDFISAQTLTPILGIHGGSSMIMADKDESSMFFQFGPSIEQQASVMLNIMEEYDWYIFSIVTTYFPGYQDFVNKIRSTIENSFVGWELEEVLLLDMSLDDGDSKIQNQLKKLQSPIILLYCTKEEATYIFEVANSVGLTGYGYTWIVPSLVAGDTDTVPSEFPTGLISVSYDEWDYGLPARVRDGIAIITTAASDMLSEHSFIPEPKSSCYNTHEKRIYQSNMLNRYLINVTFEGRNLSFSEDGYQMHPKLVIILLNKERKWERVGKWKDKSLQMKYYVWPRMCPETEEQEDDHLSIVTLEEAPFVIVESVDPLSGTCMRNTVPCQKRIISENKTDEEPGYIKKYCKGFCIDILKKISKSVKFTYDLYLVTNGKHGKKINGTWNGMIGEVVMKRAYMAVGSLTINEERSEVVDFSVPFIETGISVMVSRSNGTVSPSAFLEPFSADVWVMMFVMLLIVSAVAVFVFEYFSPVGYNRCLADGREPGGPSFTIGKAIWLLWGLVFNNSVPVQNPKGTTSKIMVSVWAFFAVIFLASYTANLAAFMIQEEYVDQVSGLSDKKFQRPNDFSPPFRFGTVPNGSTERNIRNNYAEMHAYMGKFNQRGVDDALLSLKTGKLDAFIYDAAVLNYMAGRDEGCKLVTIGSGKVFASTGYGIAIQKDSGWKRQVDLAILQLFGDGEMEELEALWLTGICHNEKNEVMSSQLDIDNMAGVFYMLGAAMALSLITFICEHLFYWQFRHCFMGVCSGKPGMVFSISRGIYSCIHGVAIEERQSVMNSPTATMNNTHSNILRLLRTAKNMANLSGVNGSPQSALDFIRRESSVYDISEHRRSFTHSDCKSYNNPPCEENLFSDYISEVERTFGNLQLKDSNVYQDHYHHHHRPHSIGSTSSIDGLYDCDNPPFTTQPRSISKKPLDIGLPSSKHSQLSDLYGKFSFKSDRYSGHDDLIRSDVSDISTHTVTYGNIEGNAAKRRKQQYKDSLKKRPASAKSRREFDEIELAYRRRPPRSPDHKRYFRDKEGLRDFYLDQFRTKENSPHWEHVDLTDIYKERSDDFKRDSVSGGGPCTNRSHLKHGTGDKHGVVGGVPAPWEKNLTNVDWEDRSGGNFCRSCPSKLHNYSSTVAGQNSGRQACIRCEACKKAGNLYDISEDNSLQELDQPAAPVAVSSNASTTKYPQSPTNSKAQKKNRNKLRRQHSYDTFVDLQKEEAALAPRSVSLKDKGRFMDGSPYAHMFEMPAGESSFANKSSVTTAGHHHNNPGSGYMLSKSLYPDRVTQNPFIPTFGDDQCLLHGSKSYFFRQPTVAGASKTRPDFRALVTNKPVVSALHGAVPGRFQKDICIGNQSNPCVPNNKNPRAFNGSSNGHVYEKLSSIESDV

In the case of `NCCCNCCCCNCCCN` [spermine], the “potentiation of recombinant NMDAR currents in Xenopus oocytes” value on GluN2B [1] was 2.83 spermine potentiation; at GluN2B [2] it was 9.45 spermine potentiation.
